ChEMBL document CHEMBL5543094, “Exploration of P1 and P4 modifications of nirmatrelvir: Design, synthesis, biological evaluation, and X-ray structural studies of SARS-CoV-2 Mpro inhibitors” (Eur J Med Chem, 2024)

Legend:
Format in all cases: functional, organism-based
SARS-CoV-2 [1] = assay: Antiviral activity against SARS-CoV-2 Wuhan 5-2N variant infected in African green monkey Vero E6 cells measured 3 days post infection by WST-8 assay; conditions: Severe acute respiratory syndrome coronavirus 2, Wuhan 5-2N, Vero C1008, 72 h
SARS-CoV-2 [2] = assay: Antiviral activity against SARS-CoV-2 Alpha QK002 variant infected in African green monkey Vero E6 cells measured 3 days post infection by WST-8 assay; conditions: Severe acute respiratory syndrome coronavirus 2, Alpha QK002, Vero C1008, 72 h
SARS-CoV-2 [3] = assay: Antiviral activity against SARS-CoV-2 Beta TY8 variant infected in African green monkey Vero E6 cells measured 3 days post infection by WST-8 assay; conditions: Severe acute respiratory syndrome coronavirus 2, Beta TY8, Vero C1008, 72 h
SARS-CoV-2 [4] = assay: Antiviral activity against SARS-CoV-2 Gamma TY7 variant infected in African green monkey Vero E6 cells measured 3 days post infection by WST-8 assay; conditions: Severe acute respiratory syndrome coronavirus 2, Gamma TY7, Vero C1008, 72 h
SARS-CoV-2 [5] = assay: Antiviral activity against SARS-CoV-2 Delta K1734 variant infected in African green monkey Vero E6 cells measured 3 days post infection by WST-8 assay; conditions: Severe acute respiratory syndrome coronavirus 2, Delta K1734, Vero C1008, 72 h
SARS-CoV-2 [6] = assay: Antiviral activity against SARS-CoV-2 Omicron 929 variant infected in African green monkey Vero E6 cells measured 7 days post infection by WST-8 assay; conditions: Severe acute respiratory syndrome coronavirus 2, Omicron 929, Vero C1008, 168 h

Row | Compound | EC50 (SARS-CoV-2 [1]) [µM] | EC50 (SARS-CoV-2 [2]) [µM] | EC50 (SARS-CoV-2 [3]) [µM] | EC50 (SARS-CoV-2 [4]) [µM] | EC50 (SARS-CoV-2 [5]) [µM] | EC50 (SARS-CoV-2 [6]) [µM]
1 | CCC(CC)COC(=O)[C@H](C)N[P@](=O)(OC[C@H]1O[C@@](C#N)(c2ccc3c(N)ncnn23)[C@H](O)[C@@H]1O)Oc1ccccc1 | 3.8 | 3.5 | 2.8 | 2.6 | 2.9 | 4.2
2 | CC(C)(C)[C@H](NC(=O)C(F)(F)F)C(=O)N1C[C@H]2[C@@H]([C@H]1C(=O)N[C@H](C#N)C[C@@H]1CCNC1=O)C2(C)C | 3 | 2.5 | 3.7 | 4 | 2.9 | 3.1
3 | CC(C)(C)[C@H](NC(=O)C(Cl)(Cl)Cl)C(=O)N1C[C@H]2[C@@H]([C@H]1C(=O)N[C@H](C#N)C[C@@H]1CCCNC1=O)C2(C)C | 0.7 | 0.8 | 2.4 | 2 | 0.6 | 4
